# Test results reported in patent publication US12435294B2, “Prevention of the oxidation of perfumery raw materials and food raw materials” (Firmenich SA, priority 2018, dated 2025).
# Where two headings read alike, the source gives them in different places.
# Experiments:
# pH of aqueous solution = type: physicochemical; conditions: solution of 0.114 g in 10 mL of water
# [1] = POV reduction in model citrus perfume (mixed citrus oil in 90/10 v/v ethanol/water)
# [2] = POV reduction in non-citrus essential oil: patchouli oil; conditions: 4 days treatment, 0.2 mL in 10 mL
# Description: (§1) For each oil, 20 mL was placed in separate 30 mL glass vials, and subjected to the following procedure for 8 days on a daily basis; the vial was opened to refresh the atmospheric headspace, then reclosed and shaken to maximize the gas/liquid contact, then stored on the benchtop under ambient laboratory temperature and lighting conditions. This procedure was designed to mimic the typical handling of a container in a production setting, in which the oil gets consumed in many small aliquots, rather than an entire container at a time.
# (§2) On Day 4, each oil sample was split in half, so two 10 mL aliquots were placed in separate vials to create a “Treated” and an “Untreated” sample. To the Treated sample of each oil type, AKG-DiTMEEA was added as per the Dosing chart below. […] The daily opening, shaking, and standing procedure continued for another four days until the POV measurements were taken. It can be seen that 8 days of such handling of the untreated oils caused significant increases in POV measurement.
# [3] = POV reduction in non-citrus essential oil: pine oil Siberian; conditions: 4 days
# Description: as §1, §2
# For this reason, two levels of AKG-DiTMEEA treatment were tried, ×2 and ×4 the treatment used on the other oils. […] A different, lower molecular weight 2-oxoacid salt may be a better choice.
# [4] = POV reduction in non-citrus essential oil: star anise oil; conditions: 4 days treatment, 0.2 mL in 10 mL
# Description: as §1, §2
# [5] = POV reduction in sunflower oil; conditions: 0.5081 g in 15 mL sunflower oil
# [6] = POV reduction in non-citrus essential oil: petitgrain oil; conditions: 4 days treatment, 0.2 mL in 10 mL
# Description: as §1, §2
# [7] = POV reduction in non-citrus essential oil: coriander oil; conditions: 4 days treatment, 0.2 mL in 10 mL
# Description: as §1, §2
# [8] = POV reduction in non-citrus essential oil: cedarwood oil Virginian; conditions: 4 days treatment, 0.2 mL in 10 mL
# Description: as §1, §2
# [9] = POV reduction in non-citrus essential oil: cinnamon leaf oil; conditions: 4 days treatment, 0.2 mL in 10 mL
# Description: as §1, §2
# [10] = POV reduction in non-citrus essential oil: basil oil; conditions: 4 days treatment, 0.2 mL in 10 mL
# Description: as §1, §2
# [11] = POV reduction in consumer product spiked with oxidized limonene: antiperspirant stick; conditions: 1% (w/w)
# [12] = POV reduction in non-citrus essential oil: lavender oil; conditions: 4 days treatment, 0.2 mL in 10 mL
# Description: as §1, §2
# [13] = leading to evolution of carbon dioxide and pyruvic acid; Krebs 1942; cited from earlier work
# [14] = Siberian (x2 Treatment Level), 0.2 mL in 5 mL
# [15] = Siberian (x4 Treatment Level), 0.4 mL in 5 mL
# [16] = 8 days* (second line, asterisk not explained)
compound,measurement,setting,value
"O=C(O)CCC(=O)C(=O)O [α-ketoglutaric acid, alpha-ketoglutaric acid]",measured pH,pH of aqueous solution,1.75
same,reduction in the POV of the formulated perfume (in words),[1],complete reduction
COCCOCCN(CCOCCOC)CCOCCOC.COCCOCCN(CCOCCOC)CCOCCOC.O=C(O)CCC(=O)C(=O)O [AKG-diTMEEA],% Reduction in POV,[2],100.0%
same,POV of Treated Oil,[2],0.00 mmol/L
same,% Reduction in POV,[3]; [14],48.4%
same,POV of Treated Oil,[3]; [14],24.8 mmol/L
same,% Reduction in POV,[3]; [15],68.4%
same,POV of Treated Oil,[3]; [15],15.21 mmol/L
same,% Reduction in POV,[4],89.2%
same,POV of Treated Oil,[4],0.38 mmol/L
same,POV of treated oil,[5]; 65 minutes since addition,11.72 mmol/L
same,% Reduction in POV,[5]; 65 minutes,29.2%
same,% Reduction in POV,[5]; 180 mins (3 hrs),44.5%
same,POV of treated oil,[5]; 180 mins (3 hrs),9.19 mmol/L
same,% Reduction in POV,[5]; 1320 mins (22 hrs),65.0%
same,POV of treated oil,[5]; 1320 mins (22 hrs),5.80 mmol/L
same,% Reduction in POV,[5]; 23 days,88.7%
same,POV of treated oil,[5]; 23 days,2.10 mmol/L
same,% Reduction in POV,[6],79.9%
same,POV of Treated Oil,[6],4.28 mmol/L
same,% Reduction in POV,[7],89.7%
same,POV of Treated Oil,[7],2.44 mmol/L
same,% Reduction in POV,[8],95.2%
same,POV of Treated Oil,[8],0.72 mmol/L
same,% Reduction in POV,[9],87.5%
same,POV of Treated Oil,[9],0.57 mmol/L
same,% Reduction in POV,[10],89.6%
same,POV of Treated Oil,[10],2.49 mmol/L
same,POV of treated APS,"[11]; 150 minutes since addition, spiked with oxidized limonene",3.7 mmol/L
same,% Reduction in POV,[11]; 150 minutes,71.3%
same,% Reduction in POV,[11]; 310 minutes (5.17 h),78.3%
same,POV of treated APS,[11]; 310 minutes (5.17 h),3.03 mmol/L
same,% Reduction in POV,[11]; 26 hrs,83.2%
same,POV of treated APS,[11]; 26 hrs,2.46 mmol/L
same,% Reduction in POV,[11]; 4 days,83.8%
same,POV of treated APS,[11]; 4 days,2.04 mmol/L
same,% Reduction in POV,[11]; [16],86.6%
same,POV of treated APS,[11]; [16],1.8 mmol/L
same,% Reduction in POV,[11]; 8 days,87.0%
same,POV of treated APS,[11]; 8 days,1.77 mmol/L
same,% Reduction in POV,[11]; 15 days,88.4%
same,POV of treated APS,[11]; 15 days,1.50 mmol/L
same,% Reduction in POV,[11]; 26 days,88.7%
same,POV of treated APS,[11]; 26 days,1.42 mmol/L
same,% Reduction in POV,[12],76.3%
same,POV of Treated Oil,[12],5.83 mmol/L
O=C(O)CC(=O)C(=O)O [oxaloacetic acid],stability in aqueous solutions,[13],unstable in aqueous solutions
same,POV of Treated Perfume,"[1]; 0.0 min, approximately 166 mg (0.83% w/v) in 20 mL model perfume (Example 19)",9.44 mmol/L
same,POV of Treated Perfume,"[1]; 27 min, 0.83% w/v in 20 mL model perfume (Example 19)",5.90 mmol/L
same,POV of Treated Perfume,"[1]; 245 min, 0.83% w/v in 20 mL model perfume (Example 19)",1.91 mmol/L
same,reduction in the POV of the formulated perfume (in words),[1]; 24 hours after treatment,complete reduction
same,POV of Treated Perfume,"[1]; […] (24 hours), 0.83% w/v in 20 mL model perfume (Example 19), indistinguishable from blank",0.0 indistinguishable from mmol/L
